Data as given in patent publication US20260207535A1, “CRIBLAGE INHIBITEURS USP8” (COMMISSARIAT A L'ENERGIE ATOMIQUE ET AUX ENERGIES …, priority 2022, published 2026).

Experiments:
UCH-L3 = molecular target: T1, UCH-L3 (Homo sapiens, UniProt P15374); test: UCH-L3 inhibition assay (Ub-Rhodamine); format: biochemical; settings: UCH-L3 3 nM
T1 construct: or the more distant UCH-L3 enzyme (Full length); purchased BostonBiochem E-325
T1 sequence (P15374 1-230): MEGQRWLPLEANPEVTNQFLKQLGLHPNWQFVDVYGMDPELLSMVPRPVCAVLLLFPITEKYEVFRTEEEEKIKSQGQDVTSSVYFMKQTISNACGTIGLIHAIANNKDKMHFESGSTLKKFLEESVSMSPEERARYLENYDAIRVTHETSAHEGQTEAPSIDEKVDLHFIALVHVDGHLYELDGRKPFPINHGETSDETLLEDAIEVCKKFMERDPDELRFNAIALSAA
Method: UCH-L3 (BostonBiochem ref. E-325) was used at a concentration of 3 nM in the presence of the Ub-Rhodamine. Enzymatic inhibition was monitored as for USP8 or USP2 CD.

[1] = molecular target: T2, catalytic domain of USP2 (USP2CD) (Homo sapiens, UniProt O75604); test: USP2 CD inhibition (Ub-Rho); format: biochemical; settings: USP2CD 16 nM
T2 construct: The purified catalytic domain of USP2 (USP2CD, in-house purified) was used; made in house
T2 sequence (O75604 267-599 limits assumed): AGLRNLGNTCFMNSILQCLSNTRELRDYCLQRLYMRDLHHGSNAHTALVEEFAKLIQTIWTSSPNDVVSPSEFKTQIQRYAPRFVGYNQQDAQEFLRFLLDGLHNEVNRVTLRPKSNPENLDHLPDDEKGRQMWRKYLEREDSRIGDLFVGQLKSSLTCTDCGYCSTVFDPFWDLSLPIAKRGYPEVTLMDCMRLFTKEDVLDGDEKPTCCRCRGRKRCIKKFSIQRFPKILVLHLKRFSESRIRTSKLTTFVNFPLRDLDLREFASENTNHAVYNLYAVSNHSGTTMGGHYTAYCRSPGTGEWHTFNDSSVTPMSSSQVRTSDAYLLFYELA
Method: The purified catalytic domain of USP2 (USP2CD, in-house purified) was used at a concentration of 16 nM in the presence of the artificial substrate Ub-Rho. Inhibition assays were performed as described above.

AtT-20 pituitary cells = test: Inhibition of ACTH secretion in pituitary cells (ACTH EIA on supernatant); format: cell-based, mouse
Method: ACTH release (percent comparison to DMSO control). Briefly, 12,500 AtT-20 cells per well were seeded in a 96-well plate. After 24 hours exposure, cells were treated with each compound at the indicated final concentration, or with DMSO alone (control condition compound solvent) or with corticotropin releasing factor (indicated CRF) at 100 nM. After a 24-hour treatment, cell supernatants were collected and stored at −80° C., prior to quantification of ACTH concentration using ACTH chemiluminescent EIA kit (Phoenix Pharmaceuticals, Inc.). Determination of ACTH concentrations was based on the best-fitting ACTH standard curve and P values were calculated using one-way ANOVA, using Prism 9 software (GraphPad Software, Inc.) ns (P=0.12). **P<0.002. ***P<0.001. All compounds were tested in technical triplicates. One representative experiment out of three is presented.
FIG. 4: illustrates a decrease of ACTH secretion by AtT-20 cells after 24-hour treatment of halogenated salicylanilides. 12,500 AtT-20 cells per well were seeded in a 96-well plate. […] After a 24-hour treatment, cell supernatants were collected and stored at −80° C., prior to quantification of ACTH concentration using ACTH chemiluminescent EIA kit (Phoenix Pharmaceuticals, Inc.). Determination of ACTH concentrations was based on the best-fitting ACTH standard curve and P values were calculated by ordinary one-way ANOVA using Prism 6 software (GraphPad Software, Inc), ns (not significant), **** P<0.0001. Compounds were tested in technical triplicates.
12,500 AtT-20 cells per well were seeded in a 96-well plate. After 24 hours, cells were treated with compounds (corresponding chemical formula are indicated in Table 1) at 25 μM final concentration, or with DMSO alone (compound solvent). After a 24-hour treatment, cell supernatants were collected and stored at −80° C., prior to quantification of ACTH concentration using ACTH chemiluminescent EIA kit (Phoenix Pharmaceuticals, Inc.). Determination of ACTH concentrations was based on the best-fitting ACTH standard curve and P values were calculated by ordinary one-way ANOVA using Prism 6 software (GraphPad Software, Inc), ns (not significant), *P<0.05, ***P<0,0001. Compounds were tested in technical triplicates.
Mouse AtT-20 pituitary cell line were used as a powerful and well-characterized model to monitor ACTH secretion using an enzyme immunoassay (EIA) kit.
Mouse AtT-20 cells were obtained from the American Type Culture Collection and maintained on DMEM containing 10% fetal bovine serum, 100 μg/mL streptomycin and 100 U/mL penicillin at 37° C. with 5% CO2 after recovery from long-term storage on liquid nitrogen-vapor phase.
The ACTH secretion levels of AtT-20 cell culture was monitored on the supernatant of AtT-20 cells treated or not by increasing doses of compounds belonging to the family of halogenated salicylanilides chemicals.
1.25×10^4 AtT20 cells were seeded on polylysine-coated 96-well culture vessels on 150 μL of complete medium. After 24 hours, cells were treated with stock compounds to a final DMSO concentration of 0.5%. After 24 hours of treatment, cell culture supernatant was collected, cleared for 10 min at 1000×g at 4° C., diluted or not in assay buffer (Phoenix Peptide ACTH EIA EK-001-21) and frozen at −80° C. for subsequent processing according to the instructions of the kit's manufacturer.

Cc1cc(C(C#N)c2ccc(Cl)cc2)c(Cl)cc1NC(=O)c1cc(I)cc(I)c1O (stereo not shown) [Closantel, reference compound]
activity against UCH-L3 (UCH-L3): not active | activity against USP2CD [1]: active | reduction in ACTH release (AtT-20 pituitary cells; 5.62 μM, compared to control): 20% | inhibition of ACTH at 25 μM, in words (FIG. 4, FIG. 5) (AtT-20 pituitary cells; 25 μM, 24-hour treatment): significant inhibition | ACTH secretion reduction (AtT-20 pituitary cells; 30 μM, compared to control conditions): 60% | activity at 25 µM (AtT-20 pituitary cells; Mus musculus, AtT20, 25 μM, 24-hour treatment, AtT-20 supernatant, read-out: ACTH secretion % of control (DMSO) at 25 μM): 65% | dose-dependent inhibition of ACTH (FIG. 3) (AtT-20 pituitary cells; increasing concentrations, 24-hour treatment): significant dose-dependent inhibition
